Laboratory results reported in patent US10351500B2, “Method of using of dihydro-resveratrol or its stilbenoid derivatives and/or chemical variants as antimicrobial agents” (Hong Kong Baptist University, priority 2015, dated 2019).

What was measured:
[1] = tested on: A375 human melanoma cells; assay: cell migration assay, A375; assay type: cell-based; details: A375, 25 μM, 24-h treatment
[2] = tested on: PANC-1 human pancreatic ductal adenocarcinoma cells; assay: cell migration assay, PANC-1; assay type: cell-based; details: PANC-1, 25 μM, 24-h treatment
[3] = tested on: pancreatic acinar cells; assay type: cell-based; details: rat, 24 h
Experimental: Functional intact acini were dissociated from pancreatic tissue using collagenase digestion with mild shearing forces. Acini were cultured in Dulbecco's modification of Eagle's medium (GIBCO) supplemented with 5% fetal bovine serum (GIBCO), 1% penicillin-streptomycin (GIBCO) in a 5% CO2, 95% air humidified atmosphere at 37° C. […] MTT reagent was added to the cells at the end of the 24-hour treatment period. After a 3-hour reaction time, MTT products were dissolved in DMSO and absorbance at 570 nm was taken.

[4] = tested on: cerulein-induced chronic pancreatitis; assay: cerulein-induced chronic pancreatitis in mice, oral treatment; assay type: in vivo, C57/BL6 mice
Experimental: Evaluation of biological activities. C57/BL6 mice aged 28 days weighing in the range of 20 to 25 g were randomly assigned into 4 groups of 6 to 8 individuals. The mice were housed with an ambient temperature of 23±2° C., a relative humidity of 60 to 80% and a 12-h light/dark cycle. Prior to the glucose tolerance test, the mice were starved overnight but allowed with free access to water. Experimental chronic pancreatitis was induced in the mice by four hourly i.p. injections of cerulein at the supramaximally stimulating dose (50 μg/kg) a day, 3 days a week, in a total of 6 weeks. The control group received injections of 0.9% saline instead of cerulein in the same volume and at same time intervals. The treatment groups given with cerulein and oral doses of dihydro-resveratrol (20 mg/kg/day) were designated as Cer+D-res. […] Thus, it concludes that an effective dosage of dihydro-resveratrol is at least 20 mg/kg/day. […] At the end of the 6-week experiment, mice were subjected to the intraperitoneal glucose tolerance test (IPGTT). Mice had been starved for 14 hours prior to the IPGTT, in which a 15% (w/v) glucose solution was injected to individual animals at 1.5 g glucose per kg body weight. About 1 μL of blood will be obtained from the tail vein, and blood glucose levels were monitored 30 min before (i.e. fasting level) and 10, 20, 30 and 60 min after glucose injection using a glucometer (Medisign, Korea). Upon scarification, pancreases were immediately removed, weighed, trimmed from fat and fixed in 4% paraformaldehyde-phosphate buffered saline overnight at 4° C. Samples were then processed, embedded in paraffin wax, sectioned and subjected to immunostaining.

[5] = tested on: skin color at the arms of individual human subjects; assay: skin colorimeter ITA° measurement after topical stilbenoid solution; assay type: in vivo
Experimental: To determine the skin color of the individual human subjects, the initial skin conditions at the arms of the individuals are tested by the skin colorimeter MPA 5 on day 0. The individual typology angle (ITA°) is calculated by the colorimeter based on the luminance (L*) and yellow-blue component (b*) values. The greater the ITA° value, the greater the skin whiteness [S. Del Bino and F. Bernerd. Variations in skin colour and the biological consequences of ultraviolet radiation exposure. British Journal of Dermatology 2013; 169 (Suppl. 3), 33-40]. In fact, skin colors are classified into 6 major divisions: very light, light, intermediate, tan, brown and dark as listed in Table 4. Two areas (2 cm×2 cm each) are selected as treated areas whereas regions surrounding the treated areas on the arms are regarded as control areas. A volume of 200 μL of the testing stilbenoids (2% by weight dissolved in ethanol) is applied to the designated area twice a day, day and night. At the end of the first week (day 7), individuals are tested with the skin colorimeter for recording the data about using the stilbenoids for 7 days. Again, at the end of the second week (day 14), individuals are tested with the skin colorimeter for recording the data about using the stilbenoids for 14 days.

[6] = ABTS radical decolorization assay (antioxidant capacity); assay type: biochemical; details: 15 min, 734 nm

## Oc1ccc(CCc2cc(O)cc(O)c2)cc1 [Dihydro-resveratrol, trans-3,5,4′-trihydroxybibenzyl]
[1]
  migratory ability: significant reduction in the migratory ability
[2]
  migratory ability: significant reduction in the migratory ability
[3]
  cytotoxicity (MTT, mitochondrial metabolic rates): approximately 500 μM
[4]
  fibrosis formation, 50 mg/kg/day versus 20 mg/kg/day: no statistically significant difference
[4]; 20 mg/kg/day oral
  pancreatic beta-cell area (insulin immunofluorescence): restoration of beta-cell area
[4]; 20 mg/kg/day oral, 3 weeks
  FN1 deposition in pancreatic parenchyma: reduces such deposition
  impaired glucose tolerance (IPGTT): significantly rectified
[4]; 50 mg/kg/day
  adverse effect: no adverse effect
[5]; 2% by weight in ethanol, topical twice a day, most individuals
  whitening effect on skin: Overt whitening effect
[5]; Individual No. 1, day 7, 2% solution topical
  ITA° measurement: 49.0 ± 1.732 °
[5]; Individual No. 1, day 14, 2% solution topical
  ITA° measurement: 52.4 ± 1.166 °
[5]; Individual No. 2, day 7, 2% solution topical
  ITA° measurement: 41.1 ± 3.391 °
[5]; Individual No. 2, day 14, 2% solution topical
  ITA° measurement: 49.8 ± 4.630 °
[5]; Individual No. 3, day 7, 2% solution topical
  ITA° measurement: 35.0 ± 1.000 °
[5]; Individual No. 3, day 14, 2% solution topical
  ITA° measurement: 33.8 ± 0.837 °
[5]; Individual No. 4, day 7, 2% solution topical
  ITA° measurement: 26.8 ± 2.371 °
[5]; Individual No. 4, day 14, 2% solution topical
  ITA° measurement: 35.2 ± 2.103 °
[5]; Individual No. 5, day 7, 2% solution topical
  ITA° measurement: 25.6 ± 1.817 °
[5]; Individual No. 5, day 14, 2% solution topical
  ITA° measurement: 27.8 ± 1.934 °
[5]; Individual No. 6, day 7, 2% solution topical
  ITA° measurement: 26.4 ± 2.649 °
[5]; Individual No. 6, day 14, 2% solution topical
  ITA° measurement: 34.6 ± 0.927 °
[5]; Individual No. 7, day 7, 2% solution topical
  ITA° measurement: 21.2 ± 0.837 °
[5]; Individual No. 7, day 14, 2% solution topical
  ITA° measurement: 23.8 ± 2.634 °
[5]; Individual No. 8, day 7, 2% solution topical
  ITA° measurement: 14.0 ± 2.345 °
[5]; Individual No. 8, day 14, 2% solution topical
  ITA° measurement: 16.2 ± 1.483 °
[5]; Individual No. 9, day 7, 2% solution topical
  ITA° measurement: −5.2 ± 0.837 °
[5]; Individual No. 9, day 14, 2% solution topical
  ITA° measurement: −2.2 ± 0.447 °
[6]
  Trolox equivalent (mg), antioxidant capacity: 4969.611 mg
